Laboratory results: patent US8394779B2, “Methods of modulating angiogenesis via TRPV4” (Children's Medical Center Corporation, priority 2008, dated 2013)
“Also recorded” adds a separate entry of the source. Where no end group is shown, it is not given here. [ ]: non-standard residue; d: D form.

Tests used:
VEGF [1] = details: cited from earlier work
[2] = mice; cited from earlier work
[3] = system: cytosolic calcium in CE cells; experiment: Mechanical strain-induced calcium influx, FLUO-4 calcium imaging; format: cell-based, bovine; details: strain 15%, 3-4 sec, gadolinium chloride 25 μM, siRNA 10 nM
Method: (§1) CE cells cultured on fibronectin-coated 6 well UNIFLEX™ (FLEXCELL® International) plates for 24 hours were subjected to uniaxial cyclic stretch (10% elongation; 1 Hz frequency) for 1-2 h using a FLEXERCELL® TENSION PLUS™ System (FLEXCELL® International). In some experiments, CE cells were plated on fibronectin-coated 6 well BIOFLEX® (FLEXCELL® International) for lh and subjected to static stretch (15% elongation) for 1-15 min. Control cells were maintained under identical conditions in the absence of strain application. […] Images were acquired for every 4 seconds and analyzed using IP lab software and Microsoft Excel as described in Matthews, et. al. (2006) (J. Cell Sci., 119:508-518). Calcium imaging with TRPV channel activators was performed on cells cultured on MatTek glass bottomed dishes on LEICA® Confocal Microscope and analyzed using LEICA® software and MICROSOFT® EXCEL®. siRNA knock down of TRPV channels: smart pool siRNAs (10 nM) of TRPV2, TRPV4 (both from Dharmacon), TRPC1 (AMBION®) or control (QIAGEN®) siRNAs was transfected into CE cells using SILENTFECT™ reagent (BIORAD®) as described in Mammoto et. al. (2007) (J. Cell Sci., 120:456-467). […] The knock down of TRPV channel expression was assessed using RT-PCR with species-specific primers and Western blotting. […]

β1 integrin [4] = experiment: Strain-induced β1 integrin activation (GST-FNIII8-11 binding, T788/789 phosphorylation); format: cell-based; details: human CE cells; 30 min pretreatment
Method: (§2) Western blotting were performed according to methods published in Mammoto et. al. (2007) (J. Cell Sci., 120:456-467). Membranes containing transferred protein were blocked in 3% BSA/TBST for 1 h and incubated overnight with primary antibodies against AKT and phospho Ser-473 AKT (1:1000), phospho-Thr 788/789 of […] integrin cytoplasmic tail (1:1000), ERK1/2 and phospho ERK1/2 (1:1000), FAK and phospho FAK-pY397 (1:1000), actin (1:1000) and TRPV4 (1:1000) at 4° C. The membranes were subsequently washed incubated with HRP-conjugated secondary antibodies (1:5000) for 1 h and washed and incubated with SUPERSIGNAL® West Pico ECL reagent from Pierce Biotechnology Inc. (USA) and exposed to Kodak X-ray film (SIGMA ALDRICH®).
(§3) β1 integrin activation was measured using a glutathione S-transferase (GST) fusion protein consisting of FN III repeat 8-11 domains or 12G10 antibodies (Orr, A. W. et. al., 2006, Mol. Biol. Cell 17:4686-4697). Briefly, cells subjected to mechanical stretch were incubated with either 5 μg/ml of GST-FN III8-11 protein or 12G10 antibodies in PBS containing Ca^2+ and Mg^2+ for 30 min at 37° C., washed and lysed in SDS-sample buffer. The samples were separated on SDS-PAGE and the bound reagents were assessed on Western blots using anti GST-antibodies and HRP-conjugated secondary antibodies.

bovine CE cells = experiment: Cyclic strain-induced CE cell reorientation (alignment); format: cell-based
Method: as §1

β1 integrin [5] = experiment: Strain-induced β1 integrin activation (GST-FNIII8-11 / 12G10 binding, T788/789 phosphorylation); format: cell-based; details: bovine CE cells, GST-FNIII8-11 and 12G10 binding
Method: as §2, §3

[6] = system: cytosolic calcium in CE cells; details: within 2-5 sec; cited from earlier work
[7] = system: cytosolic calcium in CE cells; experiment: Calcium influx on direct force application to cell surface integrins; format: cell-based, bovine; details: within 5 to 50 msec
PI3K = experiment: Strain-induced PI3K activity (GFP-AKT-PH translocation, AKT Ser-473 phosphorylation); format: cell-based, bovine; details: mechanical strain 15%
Method: Cells adherent to flexible ECM substrates and subjected to mechanical stretch were washed in PBS, fixed in 4% paraformaldehyde for 30 min either mounted on glass slides (for visualizing GFP-AKT-PH translocation) or permeabilized with 0.25% TRITON®-X 100/PBS for 5 min for immuno staining. […] Images were acquired on a LEICA® Confocal SP2 microscope and processed using LEICA® software and Adobe Photoshop. GFP-AKT-PH domain translocation to the plasma membrane was quantified measuring either ratio of the perimeter of whole cell membrane and the membrane that contains the GFP-AKT-PH domain or the ratio of GFP fluorescence intensity of translocated GFP-AKT-PH domain and cytosol adjacent to the membrane. […] Statistical differences between experimental groups were determined using the student t-test.
Membranes containing transferred protein were blocked in 3% BSA/TBST for 1 h and incubated overnight with primary antibodies against AKT and phospho Ser-473 AKT (1:1000), phospho-Thr 788/789 of 131 integrin cytoplasmic tail (1:1000), ERK1/2 and phospho ERK1/2 (1:1000), FAK and phospho FAK-pY397 (1:1000), actin (1:1000) and TRPV4 (1:1000) at 4° C. […]

TRPV4 channels [8] = molecular target: T1, TRPV4 channels (Homo sapiens, UniProt Q9HBA0); experiment: Calcium imaging with TRPV channel activator; format: cell-based; details: human CE cells, 2 μM
T1 construct: host or cells: human dermal microvascular endothelial cells (HMVECs)
T1 sequence (Q9HBA0 whole entry): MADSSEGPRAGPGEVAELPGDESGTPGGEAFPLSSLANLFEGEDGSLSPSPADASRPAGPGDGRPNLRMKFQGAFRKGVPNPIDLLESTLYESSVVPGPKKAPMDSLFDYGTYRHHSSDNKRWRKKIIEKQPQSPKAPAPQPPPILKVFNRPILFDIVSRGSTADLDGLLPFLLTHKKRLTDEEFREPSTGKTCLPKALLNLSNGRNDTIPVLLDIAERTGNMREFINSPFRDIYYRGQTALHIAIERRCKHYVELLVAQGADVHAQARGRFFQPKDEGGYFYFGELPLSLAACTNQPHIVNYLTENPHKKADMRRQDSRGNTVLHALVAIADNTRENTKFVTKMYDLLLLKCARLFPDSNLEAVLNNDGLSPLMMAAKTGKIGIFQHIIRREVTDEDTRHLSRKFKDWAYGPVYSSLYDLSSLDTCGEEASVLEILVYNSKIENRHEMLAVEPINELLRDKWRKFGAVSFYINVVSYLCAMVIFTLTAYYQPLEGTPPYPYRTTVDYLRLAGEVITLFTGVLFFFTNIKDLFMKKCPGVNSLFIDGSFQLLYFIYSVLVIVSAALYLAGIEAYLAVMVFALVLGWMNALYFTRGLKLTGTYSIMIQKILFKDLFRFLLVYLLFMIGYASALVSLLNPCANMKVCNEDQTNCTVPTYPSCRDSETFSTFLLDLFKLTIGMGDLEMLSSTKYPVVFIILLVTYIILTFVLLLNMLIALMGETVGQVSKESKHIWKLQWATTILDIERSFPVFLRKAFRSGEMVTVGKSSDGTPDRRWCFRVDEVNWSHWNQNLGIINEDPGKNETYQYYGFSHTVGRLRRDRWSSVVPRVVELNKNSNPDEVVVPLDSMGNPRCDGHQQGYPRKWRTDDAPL
Method: as §1

TRPV4 channels [9] = molecular target: T2, TRPV4 channels (Bos taurus, UniProt A0A8F4X677); experiment: Calcium imaging with TRPV channel activator; format: cell-based; details: bovine CE cells, 2 μM
T2 construct: endogenous in cells; host or cells: bovine CE cells
T2 sequence (A0A8F4X677 1-871): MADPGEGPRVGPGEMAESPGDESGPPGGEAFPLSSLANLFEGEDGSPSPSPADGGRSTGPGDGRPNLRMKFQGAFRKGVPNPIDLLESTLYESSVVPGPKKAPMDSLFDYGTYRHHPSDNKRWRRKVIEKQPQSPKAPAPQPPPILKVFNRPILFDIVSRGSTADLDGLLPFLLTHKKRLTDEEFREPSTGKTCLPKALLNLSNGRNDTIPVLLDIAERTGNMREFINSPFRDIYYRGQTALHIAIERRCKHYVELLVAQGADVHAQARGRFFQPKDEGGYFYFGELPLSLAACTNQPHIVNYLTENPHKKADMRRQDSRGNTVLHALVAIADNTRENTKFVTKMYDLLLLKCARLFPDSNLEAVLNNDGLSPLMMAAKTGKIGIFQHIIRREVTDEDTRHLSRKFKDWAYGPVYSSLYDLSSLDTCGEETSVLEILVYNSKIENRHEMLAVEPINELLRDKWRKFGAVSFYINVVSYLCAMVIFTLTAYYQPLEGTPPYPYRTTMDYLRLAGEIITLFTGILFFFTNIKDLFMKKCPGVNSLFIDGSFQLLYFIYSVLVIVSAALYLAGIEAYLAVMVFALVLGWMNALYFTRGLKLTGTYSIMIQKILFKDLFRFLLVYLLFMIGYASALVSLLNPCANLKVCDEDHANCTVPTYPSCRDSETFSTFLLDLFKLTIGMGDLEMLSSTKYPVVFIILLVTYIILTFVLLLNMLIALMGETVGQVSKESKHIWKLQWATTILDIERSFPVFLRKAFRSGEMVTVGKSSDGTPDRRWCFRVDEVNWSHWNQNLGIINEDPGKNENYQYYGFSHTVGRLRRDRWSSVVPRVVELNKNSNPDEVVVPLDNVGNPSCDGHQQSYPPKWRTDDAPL
Method: as §1

TRPV4-EGFP = experiment: Whole-cell patch clamp of bovine CE cells transfected with TRPV4-EGFP; format: cell-based; details: 4 μM
Method: One day after bovine CE cells were transfected with TRPV4-EGFP, they were plated on gelatin-coated glass coverslips and allowed to grow for ˜24 h prior to recording. Cells were recorded in the whole-cell mode using borosilicate glass pipettes (1-3 MΩ) containing: (in mM) 120 CsMeSO3, 10 EGTA, 2 MgCl2, 10 HEPES; pH and osmolarity were adjusted with CsOH or HMeSO3, as needed, to 7.2 (23° C.) and ˜300 mOsm, respectively. Cells were bathed in a solution containing (in mM): 138 NaCl, 5 KCl, 1.8 CaCl2, 1 MgCl2, 10 HEPES; pH and osmolarity were adjusted with NaOH or HCl, as needed, to 7.4 (23° C.) and ˜310 mOsm, respectively. Cells were held at −40 mV for 3-5 min to allow for intracellular dialysis. Bath superfusion was stopped prior to initiating the recording of currents resulting from the indicated voltage protocol applied every 5 s. Immediately before use, a 4-α-PDD stock solution (2 mM in EtOH, on ice) was diluted 1:50 in bath solution under vortex and 50 μl was subsequently added to a still bath (0.5 ml) by pipette (final concentrations of 4 μM 4-α-PDD and 0.2% EtOH) and mixed by 3 gentle up/down pipette strokes. […]

VEGF [10] = details: in vivo; cited from earlier work

In the case of CN(C)c1ccc(/C=C2\C(=O)Nc3ccccc32)cc1 [SU 4312], the vessel formation (VEGF [1]) is listed as “blocked”.

For CO[C@@H]1[C@H](OC(=O)NC(=O)CCl)CC[C@]2(CO2)[C@H]1[C@@]1(C)O[C@@H]1CC=C(C)C [TNP-470], the “diet-induced and genetic obesity” value [2] is given as “prevent” and the “vascularity in the adipose tissue” value [2] is given as “reduced”.

For [Cl][Gd]([Cl])[Cl] [gadolinium chloride], the “calcium influx / cytosolic calcium induced by mechanical strain” value [3] was “almost completely abolished; also recorded: reduced influx”, the “β1 integrin activation in response to mechanical strain” value (β1 integrin [4]) was “significantly inhibited” and the “CE cell reorientation / re-alignment induced by mechanical strain” value (bovine CE cells) was “greatly suppressed”. The “β1 integrin activation in response to mechanical strain” value (β1 integrin [5]) was “significantly inhibited”, the “calcium influx on direct force application to β1 integrins (magnetic tweezers)” value [6] was “blocked” and the “calcium influx on force application to integrins” value [7] was “inhibited”. The “strain-induced translocation of AKT-PH-GFP to the membrane” value (PI3K) was “inhibited”.

For CCCCCCCCCC(=O)O[C@@H]1[C@@H](C)[C@@]2(O)[C@@H](C=C(CO)C[C@@]3(O)C(=O)C(C)=C[C@@H]23)[C@@H]2C(C)(C)[C@]12OC(=O)CCCCCCCCC [4-α-PDD, 4-α-phorbol 12, 13-didecanoate], the calcium signal (TRPV4 channels [8]) was “robust calcium signal”, the calcium signal (TRPV4 channels [9]) was “robust calcium signal” and the “TRPV4 currents, whole-cell clamp” value (TRPV4-EGFP) was “robust TRPV4 currents”.

With N.N.N.N.N.N.N.N.N.N.N.N.N.N.[Cl-].[Cl-].[Cl-].[Cl-].[Cl-].[Cl-].[O-2].[O-2].[Ru+3].[Ru+3].[Ru+4] [ruthenium red] the “calcium influx / cytosolic calcium induced by mechanical strain” value [3] was “significantly suppressed; also recorded: reduced influx”, the “CE cell reorientation / re-alignment induced by mechanical strain” value (bovine CE cells) was “significantly suppressed; also recorded: inhibits” and the “CE cell apoptosis (poly(ADPribosyl) polymerase cleavage)” value (CE cells) was “did not effect”. For the same molecule, the “CE cell proliferation (Ki 67 staining)” value (CE cells) was “did not effect”.

In the case of “dRK6: Anti-VEGF hexapeptide RRKRRR (SEQ. ID. NO. 12) ([dR][dR][dK][dR][dR][dR])”, the arthritis severity (VEGF [10]) is listed as “suppress and mitigate”.
